Among the data in US12134620B2 (ARAXES PHARMA LLC, priority 2018, dated 2024) are Binding % values, retold here.

In this experiment the target is T1, KRAS G12C 1-169, his-tagged protein, GDP-loaded (Homo sapiens, UniProt P01116, G12C).
T1 construct: KRAS G12C 1-169, his-tagged protein, GDP-loaded; His tag
Kind of experiment: Biochemical assay: covalent modification of KRAS G12C, analysed by mass spectrometry (RapidFire/TOF or Q-Exactive). Further: time not given here. The experiment is classed as binding. The conditions noted are these: Modification activity, modification percentage from MS peak intensities. The procedure, abridged: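 Covalent adduct formation was quantified by intact-protein mass spectrometry, either TOF or C4 LC-Q Exactive Plus, as percent modified versus unmodified protein after deconvolution. Compounds at 8 or 32 μM final were incubated with 0.5 or 2 μM GDP-bound KRAS G12C(1-169)-His in Hepes/NaCl/MgCl2 buffer before acid quench.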
Turning to `C=CC(=O)N1CC2(CCN(c3nc(N4CCC(N5CCN(C6CC6)CC5)CC4)nc(-c4c(C)ccc5cnn(C)c45)c3C#N)C2)C1` [Compound I-216, 4-(2-acryloyl-2,6-diazaspiro[3.4]octan-6-yl)-2-(4-(4-cyclopropylpiperazin-1-yl)piperidin-1-yl)-6-(1,6-dimethyl-1H-indazol-7-yl)pyrimidine-5-carbonitrile], the Binding % entry is listed as “++ (++ indicates binding activity from 50 to 85%)”.
For `C=CC(=O)N1CC2(CCN(c3nc(N4CCC(N5CCN(C6CC6)CC5)CC4)nc(-c4c(C)ccc5[nH]ncc45)c3C#N)C2)C1` [Compound I-217, 4-(2-acryloyl-2,6-diazaspiro[3.4]octan-6-yl)-2-(4-(4-cyclopropylpiperazin-1-yl)piperidin-1-yl)-6-(5-methyl-1H-indazol-4-yl)pyrimidine-5-carbonitrile], the Binding % entry is recorded as “++ (++ indicates binding activity from 50 to 85%)”.
For `C=CC(=O)N1CC2(CCN(c3c(OCCCN(C)C)ncc(-c4c(C)ccc5[nH]ncc45)c3C#N)C2)C1` [Compound I-218, 3-(2-acryloyl-2,6-diazaspiro[3.4]octan-6-yl)-2-(3-(dimethylamino)pro-poxy)-5-(5-methyl-1H-indazol-4-yl)isonicotinonitrile], the Binding % entry was “++ (++ indicates binding activity from 50 to 85%)”.
With `C=CC(=O)N1CC2(CCN(c3nc(OCc4ccccn4)nc(-c4c(C)ccc5[nH]ncc45)n3)C2)C1` [Compound I-219, 1-(6-(4-(5-methyl-1H-indazol-4-yl)-6-(pyridin-2-ylmethoxy)-1,3,5-triazin-2-yl)-2,6-diazaspiro[3.4]octan-2-yl)prop-2-en-1-one], the Binding % entry is “+ (+ indicates binding activity greater than 0% and up to 50%)”.
To `C=CC(=O)N1CC2(CCN(c3cnc(OCc4ccccc4)c(-c4c(C)ccc5[nH]ncc45)c3C#N)C2)C1` [Compound I-220, 5-(2-acryloyl-2,6-diazaspiro[3.4]octan-6-yl)-2-(benzyloxy)-3-(5-methyl-1H-indazol-4-yl)isonicotinonitrile] belongs “++ (++ indicates binding activity from 50 to 85%)”.
For `C=CC(=O)N1CC2(CCN(c3cnc(OCCc4ccccc4)c(-c4c(C)ccc5[nH]ncc45)c3C#N)C2)C1` [Compound I-221, 5-(2-acryloyl-2,6-diazaspiro[3.4]octan-6-yl)-3-(5-methyl-1H-indazol-4-yl)-2-phenethoxyisonicoti-nonitrile], the Binding % result is “++ (++ indicates binding activity from 50 to 85%)”.
To `C=CC(=O)N1CC2(CCN(c3cnc(OCCc4ccccc4)c(-c4c(C)ccc5cnn(C)c45)c3C#N)C2)C1` [Compound I-222, 5-(2-acryloyl-2,6-diazaspiro[3.4]octan-6-yl)-3-(1,6-dimethyl-1H-indazol-7-yl)-2-phenethoxyisonicoti-nonitrile] belongs “++ (++ indicates binding activity from 50 to 85%)”.
Take `C=CC(=O)N1CC2(CCN(c3cnc(Cc4ccccc4)c(-c4c(C)ccc5[nH]ncc45)c3C#N)C2)C1` [Compound I-223, 5-(2-acryloyl-2,6-diazaspiro[3.4]octan-6-yl)-2-benzyl-3-(5-methyl-1H-indazol-4-yl)isonicotinonitrile]: the Binding % result is on record as “++ (++ indicates binding activity from 50 to 85%)”.
On to `C=CC(=O)N1CC2(CCN(c3cnc(Cc4ccccc4)c(-c4c(C)ccc5cnn(C)c45)c3C#N)C2)C1` [Compound I-224], for which the Binding % entry is on record as “++ (++ indicates binding activity from 50 to 85%)”.
For `C=CC(=O)N1CC2(CCN(c3cnc(OCc4ccccc4)c(-c4c(C)ccc5cnn(C)c45)c3C#N)C2)C1` [Compound I-225, 5-(2-acryloyl-2,6-diazaspiro[3.4]octan-6-yl)-2-(benzyloxy)-3-(1,6-dimethyl-1H-indazol-7-yl)isonicotinonitrile], the Binding % entry is on record as “++ (++ indicates binding activity from 50 to 85%)”.
As to `C=CC(=O)N1CC2(CCN(c3cc(-c4c(C)ccc5cn[nH]c45)ncn3)C2)C1` [Compound I-226, 1-(6-(6-(6-methyl-1H-indazol-7-yl)pyrimidin-4-yl)-2,6-diazaspiro[3.4]octan-2-yl)prop-2-en-1-one], the Binding % result is “+ (+ indicates binding activity greater than 0% and up to 50%)”.
For `C=CC(=O)N1CC2(CCN(c3ncnc(-c4c(C)ccc5cn[nH]c45)c3C#N)C2)C1` [Compound I-227, 4-(2-acryloyl-2,6-diazaspiro[3.4]octan-6-yl)-6-(6-methyl-1H-indazol-7-yl)pyrimidine-5-carbonitrile], the Binding % result is “+ (+ indicates binding activity greater than 0% and up to 50%)”.
As to `C=CC(=O)N1CC2(CCN(c3ncnc(-c4c(O)cccc4F)c3C#N)C2)C1` [Compound I-228, 4-(2-acryloyl-2,6-diazaspiro[3.4]octan-6-yl)-6-(2-fluoro-6-hydroxyphenyl)pyri-midine-5-carbonitrile], the Binding % result is “+ (+ indicates binding activity greater than 0% and up to 50%)”.
Take `C=CC(=O)N1CC2(CCN(c3cc(-c4c(C)ccc5[nH]ncc45)ncn3)C2)C1` [Compound I-229, 1-(6-(6-(5-methyl-1H-indazol-4-yl)pyrimidin-4-yl)-2,6-diazaspiro[3.4]octan-2-yl)prop-2-en-1-one]: the Binding % entry was “+ (+ indicates binding activity greater than 0% and up to 50%)”.
`C=CC(=O)N1CC2(CCN(c3cc(-c4c(O)cccc4F)ncn3)C2)C1` [Compound I-230, 1-(6-(6-(2-fluoro-6-hydroxyphenyl)pyri-midin-4-yl)-2,6-diazaspiro[3.4]octan-2-yl)prop-2-en-1-one]: the Binding % result is “+ (+ indicates binding activity greater than 0% and up to 50%)”.
As to `C=CC(=O)N1CC2(CCN(c3ncnc(-c4c(C)ccc5[nH]ncc45)c3C#N)C2)C1` [Compound I-231, 4-(2-acryloyl-2,6-diazaspiro[3.4]octan-6-yl)-6-(5-methyl-1H-indazol-4-yl)pyrimidine-5-carbonitrile], the Binding % result is “+ (+ indicates binding activity greater than 0% and up to 50%)”.
Consider `C=CC(=O)N1CC2(CCN(c3ncnc(C#Cc4c(C)ccc5[nH]ncc45)c3C#N)C2)C1` [Compound I-232, 4-(2-acryloyl-2,6-diazaspiro[3.4]octan-6-yl)-6-((5-methyl-1H-indazol-4-yl)ethynyl)pyrimidine-5-carbonitrile], for which the Binding % result is “+ (+ indicates binding activity greater than 0% and up to 50%)”.
On to `C=CC(=O)N1CC2(CCN(c3ncnc(-c4cc(O)cc5ccccc45)c3C#N)C2)C1` [Compound I-233, 4-(2-acryloyl-2,6-diazaspiro[3.4]octan-6-yl)-6-(3-hydroxynaphthalen-1-yl)pyrimidine-5-carbonitrile], for which the Binding % result was “+ (+ indicates binding activity greater than 0% and up to 50%)”.
On to `C=CC(=O)N1CC2(CCN(c3ncnc(-c4cc5cn[nH]c5cc4C)c3C#N)C2)C1` [Compound I-234, 4-(2-acryloyl-2,6-diazaspiro[3.4]octan-6-yl)-6-(6-methyl-1H-indazol-5-yl)pyrimidine-5-carbonitrile], for which the Binding % entry is “+ (+ indicates binding activity greater than 0% and up to 50%)”.
For the compound `C=CC(=O)N1CC2(CCN(c3ncnc(-c4cc5[nH]ncc5cc4C)c3C#N)C2)C1` [Compound I-235, 4-(2-acryloyl-2,6-diazaspiro[3.4]octan-6-yl)-6-(5-methyl-1H-indazol-6-yl)pyrimidine-5-carbonitrile], the Binding % entry was “+ (+ indicates binding activity greater than 0% and up to 50%)”.
For the compound `C=CC(=O)N1CC2(CCN(c3ncnc(-c4c(C)ccc5[nH]ncc45)c3C#N)CC2)C1` [Compound I-236, 4-(2-acryloyl-2,7-diazaspiro[3.5]nonan-7-yl)-6-(5-methyl-1H-indazol-4-yl)pyrimidine-5-carbonitrile], the Binding % entry was “+ (+ indicates binding activity greater than 0% and up to 50%)”.
To `C=CC(=O)N1CC2(CCN(c3ncnc(-c4c(C)ccc5cn[nH]c45)c3C#N)CC2)C1` [Compound I-237, 4-(2-acryloyl-2,7-diazaspiro[3.5]ononan-7-yl)-6-(6-methyl-1H-indazol-7-yl)pyrimidine-5-carbonitrile] belongs “+ (+ indicates binding activity greater than 0% and up to 50%)”; to `C=CC(=O)N1CC2(CCN(c3ncnc(-c4c(C)ccc5[nH]nc(C6CC6)c45)c3C#N)C2)C1` [Compound I-238, 4-(2-acryloyl-2,6-diazaspiro[3.4]octan-6-yl)-6-(3-cyclopropyl-5-methyl-1H-indazol-4-yl)pyrimidine-5-carbonitrile], “+ (+ indicates binding activity greater than 0% and up to 50%)”.
As to `C=CC(=O)N1CC2(CCN(c3ncnc(-c4c(C)ccc5[nH]ncc45)c3F)C2)C1` [Compound I-239, 1-(6-(5-fluoro-6-(5-methyl-1H-indazol-4-yl)pyrimidin-4-yl)-2,6-diazaspiro[3.4]octan-2-yl)prop-2-en-1-one], the Binding % result is “+ (+ indicates binding activity greater than 0% and up to 50%)”.
Next, `C=CC(=O)N1CC2(CCN(c3ncnc(-c4c(O)cccc4F)c3C#N)CC2)C1` [Compound I-240, 4-(2-acryloyl-2,7-diazaspiro[3.5]nonan-7-yl)-6-(2-fluoro-6-hydroxyphenyl)pyri-midine-5-carbonitrile]: “+ (+ indicates binding activity greater than 0% and up to 50%)”.
As for `C=CC(=O)N1CC2(CCN(c3ncnc(-c4c(C)ccc5[nH]ncc45)c3CC#N)C2)C1` [Compound I-241, 2-(4-(2-acryloyl-2,6-diazaspiro[3.4]octan-6-yl)-6-(5-methyl-1H-indazol-4-yl)pyrimidin-5-yl)acetonitrile], the Binding % result is “+ (+ indicates binding activity greater than 0% and up to 50%)”.
Take `C=CC(=O)N1CC2(CCN(c3ncnc(-c4c(C)ccc5[nH]nc(N)c45)c3C#N)C2)C1` [Compound I-242, 4-(2-acryloyl-2,6-diazaspiro[3.4]octan-6-yl)-6-(3-amino-5-methyl-1H-indazol-4-yl)pyrimidine-5-carbonitrile]: the Binding % result is recorded as “++ (++ indicates binding activity from 50 to 85%)”.
